Tested on: mTOR pathway
Assay: Western blot of P70S6 and pP70S6 in corneal epithelium, disepithelization model (Example 1)
Type: in vivo, mice
Description: Eight-week-old C57BL6/N (Charles River, Calco, Italy) (WT mice, n=8) and B6.Cg-Tac1tm1Bbm/J (Jackson Laboratories, Bar Harbor, Me., USA) (TAC1-KO mice, n=8) male mice were used in all experiments. Each animal was anesthetized with intraperitoneal injection of tribromoethanol (250 mg/kg) and a topical anesthetic was applied to their ocular surface prior to the surgical procedure. Disepithelization was performed based on the model previously described, using a blunt spatula to scrap the entire corneal epithelium from limbus to limbus. After wounding, eyes were treated with ophthalmic moxifloxacin 1 time/day for 1 week to […]. Fourteen days after disepithelization mice were euthanized using carbon dioxide inhalation and subsequent cervical dislocation. Corneas were collected for immunostaining and western blot analysis. All experimental protocols were approved by the Animal Care and Use Committee of the Istituto di Ricovero e cura a Carattere Scientifico San Raffaele Scientific Institute, in accordance with the ARVO Statement for the Use of Animals in Ophthalmic and Vision Research.
To evaluate the pharmacological inhibition of Substance P, an additional group of mice (WT-FOSA, n=6) received Fosaprepitant 10 mg/mL (IVEMEND, Merck Sharp & Dohme Ltd., Hoddes-don, UK) dissolved in a total volume of 10 μL phosphate-buffered saline (PBS, Sigma-Aldrich, St. Louis, Mo., USA) or 10 μL of vehicle as control, topically four times a day in both eyes for 14 days. The treatments started 1 day after corneal dispepithelization.
For Western Blot analysis, corneal epithelium was isolated after 30 minutes of EDTA treatment (Sigma-Aldrich Corp., St. Louis, Mo., USA) at 37° C. […] Bands were quantified using Image Lab™ software (Version 6.0.1, Bio-Rad Laboratories, Hercules, Calif., USA).
The expression of p70 S6 Kinase (P70S6), phospho-p70 S6 Kinase (pP70S6), and phospho-histone 2-AX (γH2AX) was evaluated by Western Blot, as previously described in section 2.9. […] Bands were quantified using Image J software (National Institutes of Health, Bethesda, Md., USA).

C[C@@H](O[C@H]1OCCN(Cc2nc(=O)n(P(=O)(O)O)[nH]2)[C@H]1c1ccc(F)cc1)c1cc(C(F)(F)F)cc(C(F)(F)F)c1 [Fosaprepitant, [3-{[(2R,3S)-2-[(1R)-1-[3,5-bis(trifluoromethyl)phenyl]ethoxy]-3-(4-fluorophenyl)morpholin-4-yl]methyl}-5-oxo-2H-1,2,4-triazol-1-yl]phosphonic acid]
pP70S6 expression compared to WT (in words) (Fosaprepitant 10 mg/mL (WT-FOSA), western blot): significant decrease
ratio between pP70S6 and P70S6 expression (mTOR pathway activation) compared to WT (Fosaprepitant 10 mg/mL topically four times a day for 14 days (WT-FOSA)): significant decrease
decrease in pP70S6 expression compared to WT (Fosaprepitant 10 mg/mL topically four times a day for 14 days (WT-FOSA), p<0.05): 38%

From patent publication US20230134843A1, “TREATMENT OF STEM CELL DEFICIENCY” (OSPEDALE SAN RAFFAELE S.R.L., priority 2020, published 2023)
